{
  "source": "patent US20250099596A1",
  "about": "“TETRAHYDRONAPHTHALENE COMPOUND, AND PREPARATION METHOD THEREFOR AND USE THEREOF IN MEDICINE” (Jiangsu Hengrui Pharmaceuticals Co., Ltd., priority 2021, published 2025)",
  "key": {"MCF7 cells": {"test_system": "MCF7 cells", "test": "Inhibitory effects on MCF7 cell proliferation (CellTiter-Glo)", "type": "cell-based", "conditions": "Homo sapiens, 144 h, 6 days incubation, read-out: IC50 (nM), inhibition of MCF7 cell proliferation", "in_short": "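MCF7 cells seeded at 3,000 cells/well in MEM with 2% FBS, then treated next day with 9 final concentrations (4-fold dilutions from 1000 nM) for 6 days at 37° C; blank control 0.5% DMSO. Viability read by CellTiter-Glo luminescence; IC50 fitted from concentration–signal data.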"}, "[1]": {"test": "Pharmacokinetic evaluation, SD rat test", "type": "in vivo", "conditions": "SD rats; for AUC(0-t): read-out: Area under curve AUC0-t; for half-life: read-out: Half-life T1/2 (converted); for Cmax: read-out: Plasma concentration Cmax", "protocol": "With SD rats as test animals, the plasma concentration of the compound of Example 26-1 was determined by LC/MS/MS at different time points after intragastric (i.g.)/intravenous (i.v.) administration to SD rats. The pharmacokinetic behavior of the compound of the present disclosure in SD rats was studied and its pharmacokinetic profile was evaluated.\nEight SD rats, of which half were male and half female, were evenly divided into 2 groups. The rats were provided by Zhejiang Vital River Laboratory Animal Technology Co., Ltd. The 2 groups were fasted overnight and then dosed intragastrically and intravenously, respectively.\nAn appropriate amount of the compound of Example 26-1 was weighed out and mixed with 5% EtOH+95% (a 15% solution of polyethylene glycol 15-hydroxystearate prepared in a 5% aqueous solution of glucose) to make a 0.2 mg/mL colorless clear solution (for the intragastric administration group) and a 0.2 mg/mL colorless clear solution (for the intravenous administration group).\nThe intragastric administration group: the dose was 2.0 mg/kg, and the volume was 10.0 mL/kg.\nThe intravenous administration group: the dose was 1.0 mg/kg, and the volume was 5.0 mL/kg.\nThe intragastric administration group: Blood (0.2 mL) was collected from the orbit into EDTA-K2 anticoagulation tubes before administration and 0.25 h, 0.5 h, 1.0 h, 2.0 h, 4.0 h, 6.0 h, 8.0 h, 11.0 h and 24.0 h after administration and centrifuged at 10,000 rpm for 1 min (4° C.). The plasma was separated within 1 h and stored at −20° C. before analysis. The process from blood collection to centrifugation was performed in an ice bath. Two hours after administration, feeding was resumed.\nThe intravenous administration group: Blood was collected before administration and 5 min, 15 min, 0.5 h, 1.0 h, 2.0 h, 4.0 h, 8.0 h, 11.0 h and 24 h after administration and processed as in the intragastric administration group.\nThe plasma concentration of the test compound was determined after administration of different concentrations of the test compound to SD rats: plasma samples (25 μL) were collected from SD rats at various time points after administration, and 50 μL of camptothecin (100 ng/mL) was added to each of the samples; proteins were precipitated with 200 μL of acetonitrile; the mixtures were vortexed for 5 min and centrifuged at 4000 rpm for 10 min. 1 μL of supernatant was collected for LC/MS/MS analysis."}, "[2]": {"test_system": "human breast cancer cell MCF-7 (Y537S) xenograft tumors", "test": "Pharmacodynamic test: MCF-7 (Y537S) xenograft tumors in BEIGE SCID mice", "type": "in vivo", "conditions": "for Number of remaining animals/group / Mean tumor volume (mm^3) D 0 / Mean tumor volume (mm^3) D 28 / TGI (%) D 28: i.g., qd/28 d; for Mean tumor volume (mm^3) D 0: D 0 (day of grouping)", "excerpt": "To evaluate the inhibitory effect of the compound of the present disclosure on the growth of human breast cancer cell MCF-7 (Y537S) xenograft tumors in BEIGE SCID mice.\nA 2% Tween 80+98% PEG-400 solution was used.\nAnimals: BEIGE SCID female mice, purchased from Beijing Vital River Laboratory Animal Technology Co., Ltd. (certificate No. SCXK (Beijing) 2016-0006), weighing about 19 g on purchase.\nBEIGE SCID mice were acclimatized and then grouped as follows:\nMCF-7 (Y537S) cells in the logarithmic growth phase were subcutaneously inoculated at 1.0×10^7/mouse/200 μL (containing 100 μL of matrigel) into the right flank of female BEIGE SCID mice. After 18 days, when the tumor volume of tumor-bearing mice reached about 170 mm^3, the mice were randomly divided into 4 groups of 8 by tumor volume and body weight: a vehicle control group, an Example 26-1 5 mpk group, an Example 26-1 15 mpk group, and an Example 26-1 45 mpk group. The day of grouping was set as DO, and intragastric administration was started and performed once a day for 28 days. The 28th day after administration was set as D28 (Table 7). For the tumor-bearing mice, the tumor volume was measured with a vernier caliper and the body weight was measured with a balance twice a week, and data were recorded.\nAll data were plotted and statistically analyzed using Excel and GraphPad Prism 8 software.\nThe tumor volume (V) was calculated as follows: V=1/2×a×b^2, where a and b represent length and width, respectively.\nThe relative tumor proliferation rate T/C (%)=(T−T0)/(C−C0)×100(%), where T and C are tumor volumes of a treatment group and the control group respectively at the end of the experiment; T0 and C0 are tumor volumes of a treatment group and the control group respectively at the beginning of the experiment.\nTumor growth inhibition ? TGI (%)=1−T/C (%), and if TGI (%) exceeds 100%, it will not be shown as a specific value but >100%."}, "[3]": {"conditions": "both sexes, rat, plasma, iv, i.v., 1.0 mg/kg"}, "[4]": {"conditions": "both sexes, rat, plasma, po, i.g., 2.0 mg/kg"}},
  "note": "Like-named read-outs stand apart in the source and are kept apart here.",
  "data": [
    {"molecule": "CC(C)C[C@H]1CCc2cc(O)ccc2[C@H]1c1ccc(N2CCC(CN3CCN(c4ccc5c(c4)CN([C@H]4CCC(=O)NC4=O)C5=O)CC3)CC2)cc1", "note": "[Example 26-1, (S)-3-(5-(4-((1-(4-((1R,2R)-6-Hydroxy-2-isobutyl-1,2,3,4-tetrahydronaphthalen-1-yl)phenyl)piperidin-4-yl)methyl)piperazin-1-yl)-1-oxoisoindolin-2-yl)piperidine-2,6-dione]", "values": [
      {"measurement": "IC50", "setting": "MCF7 cells", "result": 0.59, "unit": "nM"},
      {"measurement": "Clearance CL/F", "setting": "[1]; i.v., 1.0 mg/kg", "result": 6.4, "unit": "mL/min/kg"},
      {"measurement": "AUC(0-t)", "setting": "[1]; [3]", "result": 2640, "unit": "ng·h/mL"},
      {"measurement": "half-life", "setting": "[1]; [3]", "result": 4.8, "unit": "h"},
      {"measurement": "Cmax", "setting": "[1]; [3]", "result": 4040, "unit": "ng/mL"},
      {"measurement": "Vd/F", "setting": "[1]; both sexes, rat, plasma, po, i.g., 2.0 mg/kg, read-out: Apparent distribution volume Vz/F", "result": 38.5, "unit": "L/kg"},
      {"measurement": "AUC(0-t)", "setting": "[1]; [4]", "result": 302, "unit": "ng·h/mL"},
      {"measurement": "CL/F", "setting": "[1]; both sexes, rat, plasma, po, i.g., 2.0 mg/kg, read-out: Clearance CL/F", "result": 102, "unit": "mL/min/kg"},
      {"measurement": "half-life", "setting": "[1]; [4]", "result": 4.4, "unit": "h"},
      {"measurement": "Cmax", "setting": "[1]; [4]", "result": 32.9, "unit": "ng/mL"},
      {"measurement": "Effect on the body weight of BEIGE SCID mice", "setting": "[2]; i.g., 5, 15, 45 mpk, qd for 28 days", "result": "did not affect mouse body weight"},
      {"measurement": "Number of remaining animals/group", "setting": "[2]; 5 mpk", "result": "8/8"},
      {"measurement": "Mean tumor volume (mm^3) D 0", "setting": "[2]; 5 mpk", "result": 170.2, "unit": "mm^3"},
      {"measurement": "Mean tumor volume (mm^3) D 28", "setting": "[2]; 5 mpk", "result": 305.0, "unit": "mm^3"},
      {"measurement": "TGI (%) D 28", "setting": "[2]; 5 mpk", "result": 72, "unit": "%"},
      {"measurement": "Number of remaining animals/group", "setting": "[2]; 15 mpk", "result": "8/8"},
      {"measurement": "Mean tumor volume (mm^3) D 0", "setting": "[2]; 15 mpk", "result": 168.2, "unit": "mm^3"},
      {"measurement": "Mean tumor volume (mm^3) D 28", "setting": "[2]; 15 mpk", "result": 219.7, "unit": "mm^3"},
      {"measurement": "TGI (%) D 28", "setting": "[2]; 15 mpk", "result": 89, "unit": "%"},
      {"measurement": "Number of remaining animals/group", "setting": "[2]; 45 mpk", "result": "8/8"},
      {"measurement": "Mean tumor volume (mm^3) D 0", "setting": "[2]; 45 mpk", "result": 168.6, "unit": "mm^3"},
      {"measurement": "Mean tumor volume (mm^3) D 28", "setting": "[2]; 45 mpk", "result": 192.0, "unit": "mm^3"},
      {"measurement": "TGI (%) D 28", "setting": "[2]; 45 mpk", "result": 95, "unit": "%"}
    ]}
  ]
}
